The text below walks through data of US11572344B2, “Cyanoaryl-aniline compounds for treatment of dermal disorders” (NFlection Therapeutics, Inc., priority 2018, dated 2023).

Data set [1] can be described thus: Liver S9 half-life stability assay. Type of data set: in vitro ADME. The settings on record: human, liver S9 fraction, pH 7.4; 1 μM test compound, 2 mg/mL liver protein, 1 mM NADPH; read-out: Assay 4: liver S9 half-life. Here is the method: Compounds can be assessed for metabolic stability in human skin by assessing their rate of disappearance from human S9 skin fraction. Similarly, compounds can be assessed for metabolic stability in human liver by assessing their rate of disappearance from human S9 liver fraction. The protocol below is used to assess the difference between skin and hepatic metabolism.
The assay was carried out in 96-well microtiter plates at 37° C. Reaction mixtures (25 μL) contained a final concentration of 1 μM test compound, 2 mg/mL liver or skin protein, and 1 mM NADPH in buffer (100 mM potassium phosphate, pH 7.4 buffer with 1 mM EDTA, 3 mM MgCl2). At each of the time points (0, 15, 30, and 60 minutes), 150 μL of quench solution (100% acetonitrile with 0.1% formic acid) with internal standard was transferred to each well. Besides the zero minute controls, mixtures containing the same components except the NADPH were also prepared as the negative control. Verapamil or testosterone was included as a positive control to verify assay performance. Plates were sealed and centrifuged at 4° C. for 15 minutes at 4000 rpm. The supernatant was transferred to fresh plates for LC/MS/MS analysis.
All samples were analyzed on LC/MS/MS using an AB Sciex API 4000 instrument, coupled to a Shimadzu LC-20AD LC Pump system. Analytical samples were separated using a Waters Atlantis T3 dC18 reverse phase HPLC column (20 mm×2.1 mm) at a flow rate of 0.5 mL/min. The mobile phase consisted of 0.1% formic acid in water (solvent A) and 0.1% formic acid in 100% acetonitrile (solvent B).
The extent of metabolism was calculated as the disappearance of the test compound, compared to the 0-min control reaction incubations. Initial rates were calculated for the compound concentration and used to determine t1/2 values and subsequently, the intrinsic clearance, CLint=(0.693) (1/t1/2 (min)) (mL incubation/mg of S9 protein).
Assay 4 is the liver S9 half-life stability assay as described in Example 42. A4 indicates a half life of greater than 50 min and less than or equal to 200 min and B4 indicates a half life of less than or equal to 50 minutes.

Data set [2] concerns the target MEK1 (Homo sapiens (Human), UniProt Q02750). In words: MEK Inhibition Assay-1 (33P-ATP, P81 filter-binding). The settings on record: assay of Example 38; read-out: Assay 1: biochemical MEK IC50. As for the experimental part:
The following procedure can be used to measure biochemical activity. MEK1 inhibitory activity of compounds were tested using the following procedure. […] Nat Biotechnol. 2011, 29(11), 1039-45.
• Reaction buffer: 20 mM Hepes (pH 7.5), 10 mM MgCl2, 1 mM EGTA, 0.02% Brij35, 0.02 mg/mL BSA, 0.1 mM Na3VO4, 2 mM DTT, 1% DMSO • Enzyme: MEK1, Invitrogen cat #PV3303 • N-terminal His-tagged recombinant human full length protein, expressed in insect cells. Activated in vitro by RAF1. MW=49.2 kDa, GenBank Accession No. NP_002746. • Substrate: 5 μM ERK2 (K52R), • Kinase-dead mutant, (GenBank Accession No. NM_0011949), aa2-358 with N-terminal His6 tag, MW=43.63 kDa, expressed in E. coli.
The substrate was prepared in freshly prepared Reaction Buffer. The kinase was delivered into the substrate solution and gently mixed. Test compounds were delivered in 100% DMSO into the kinase reaction mixture by Acoustic technology (Echo550; nanolitter range), and incubated for 20 min at room temperature. ^33P-ATP was delivered into the reaction mixture to initiate the reaction. The reaction mixture was incubated for 2 hours at room temperature. Kinase activity was detected by P81 filter-binding method.
Assay 1 is the biochemical MEK IC50 (nM) assay as described in Example 38.

pIC50: −log10 of the molar value. Bounds are passed on as bounds.

Sequence of MEK1 (Q02750 whole entry): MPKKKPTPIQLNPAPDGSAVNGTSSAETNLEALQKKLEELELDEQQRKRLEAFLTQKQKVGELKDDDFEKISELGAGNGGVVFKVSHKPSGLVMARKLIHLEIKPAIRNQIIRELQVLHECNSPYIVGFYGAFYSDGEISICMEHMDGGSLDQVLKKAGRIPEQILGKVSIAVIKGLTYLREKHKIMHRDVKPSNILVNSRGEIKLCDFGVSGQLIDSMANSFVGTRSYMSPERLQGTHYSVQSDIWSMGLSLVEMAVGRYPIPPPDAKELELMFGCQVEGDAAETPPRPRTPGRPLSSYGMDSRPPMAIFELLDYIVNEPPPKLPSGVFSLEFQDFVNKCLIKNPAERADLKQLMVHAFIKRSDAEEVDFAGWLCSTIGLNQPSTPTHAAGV

For orientation: half-life means the time needed for the level to fall by half in the phase considered. What is called pIC50 is the IC50 on a negative log10 scale, so that one unit is a factor of ten. Regarding `N#Cc1ccc(C(=O)NOCCO)c(Nc2ccc(I)cc2F)c1` [Compound 1.010], the half-life at 1 μM in data set [1] is 50 to 200 min. Further, the pIC50 in data set [2] is ≥ 6.82.

Turning to `N#Cc1ccc(C(=O)NOCCO)c(Nc2ccc(I)cc2F)c1F` [Compound 1.030, 4-cyano-3-fluoro-2-((2-fluoro-4-iodophenyl)amino)-N-(2-hydroxyethoxy) benzamide], the half-life at 1 μM in data set [1] is 50 to 200 min. The pIC50 in data set [2] is ≥ 6.82.

With `N#Cc1ccc(C(=O)NOCC2CC2)c(Nc2ccc(I)cc2F)c1F` [Compound 1.031], the half-life at 1 μM in data set [1] was ≤ 50 min. For the same compound, in data set [2], the pIC50 is ≥ 6.82.
